Experimental data from ChEMBL document CHEMBL3507680, “University of Dundee, Gates Library screen for HepG2 cell viability”.

Assay: Human HepG2 cell viability assay in 384 well format
Assay type: toxicity, cell-based
Parameters: dose 125 nL, time 70.5 hour; concentration not given beside the values
Details: HepG2 cells, read-out: Inhibition

Point of comparison: CCOc1cc(CNC(=O)NCc2nc(C)c(C)s2)ccn1, cytotoxicity at 70.5 h -5.57%. Against it:
- CC(=O)NC1(C(=O)N2CCCN(c3cccnn3)CC2)CCCCC1 — higher, -5.29%
- COc1cc(NC(=O)c2cscn2)ncn1 — higher, 22.1%
- O=C(NC[C@H]1OC[C@@H](NCc2ccc(F)cc2)[C@@H]1O)N1CCOCC1 — lower, -8.58%
- N#CC1(NC(=O)c2ccc(F)c(Br)c2)CCSC1 (centres undefined) — lower, -8.42%
- O=C(NC1CC1)[C@H]1C[C@H]2OCC[C@H]2N(Cc2cccc3ccccc23)C1 — higher, -0.842%
- Cn1ccc(CN2CCC(c3ccccc3)CC2)cc1=O — lower, -8.13%
- Cc1nc(C2CCCN(C(=O)CCCOc3cccc(F)c3)C2)no1 (centres undefined) — lower, -16.6%
- CCOCc1ccc(NC(=O)NC2CCCn3nc(CC)nc32)cc1 (centres undefined) — lower, -7.72%
- COc1ccc(Cc2cccc(C3CCN(C)CC3)n2)cc1 — lower, -6.68%
- CC(C)N1c2sc(-c3ccccc3)nc2CC1C(=O)NCCCO (centres undefined) — lower, -5.59%
- O=C(CC1OCCc2ccsc21)NCC1CC1 (centres undefined) — higher, -1.8%
- Cn1cc(CN2CCCC(CCCc3ccccn3)(C(N)=O)C2)cn1 (centres undefined) — lower, -8.02%
- COc1ccc(-c2n[nH]cc2CN(C)Cc2nnc(C)o2)c(F)c1 — higher, 1.72%
- Cc1cnc(CN2CCOC(CN(C)c3cccnn3)C2)cn1 (centres undefined) — higher, -0.738%
- CCOc1ccccc1OC1CCN(Cc2ccn(C)c(=O)c2)CC1 — higher, 20.3%
- O=C(c1cscn1)N1CCC[C@]2(C[C@H](OCC3CC3)CO2)C1 — higher, -5.48%
- CCSc1ccc(C(=O)N2CCCCC2C(=O)NC(C)(C)C)cn1 (centres undefined) — lower, -7.45%
- NCC1CCC2(CCN(C(=O)c3ccccn3)CC2)CO1 (centres undefined) — higher, 2.02%
- Cc1ccc(S(=O)(=O)N2CCC(N3CCCCC3)CC2)cc1C — higher, 5.06%
- COc1ccc(CC(C)(O)CNC(=O)Cc2cccs2)cc1 (centres undefined) — higher, 11.8%
- Cc1ccc(OCC(=O)NC2CCN(S(C)(=O)=O)CC2)cc1 — higher, -1.26%
- Cc1[nH]ccc1C(=O)N1CCCC(c2ccc(C(=O)O)cc2)C1 (centres undefined) — lower, -22.6%
- Cc1ccc(-c2c(-c3ccccc3)ncn2CCCN2CCOCC2)o1 — lower, -11.8%
- Cn1cncc1CN1CCC(O)(Cn2nc(-c3cccs3)oc2=O)CC1 — higher, -2.36%
- O=C(O)c1cccnc1CN1CCCCC1CCc1cccs1 (centres undefined) — higher, 12.3%
- CC(C)N1Cc2c(C(=O)N3CCN(C)CC3)nn(C)c2C1 — higher, -0.433%
- COCC1CC2(CCN(c3ccccn3)CC2)CN1C(C)C (centres undefined) — lower, -11.6%
- CCc1ccc(CN2CCN(CCOC)[C@@H]3CS(=O)(=O)C[C@@H]32)cc1 — higher, 1.39%
- O=C(NCCc1cnccn1)c1cccc(S(=O)(=O)NC2CCOC2)c1 (centres undefined) — higher, -1.15%
- CN(Cc1ccsc1)C(=O)c1cccc(NS(C)(=O)=O)c1 — lower, -7.22%
- CNS(=O)(=O)c1cccc(CNC(=O)NCC2CCOC2)c1 (centres undefined) — lower, -8.46%
- CCn1cc(-c2c(C)c(C3CCOC(C)(C)C3)nc(N)c2C#N)cn1 (centres undefined) — higher, 9.87%
- Cc1nccn1CCCn1c(=O)cnc2ccccc21 — lower, -10.5%
- CCCn1ncc(C2CC(=O)NCc3nc4sc(C)cn4c32)c1C (centres undefined) — higher, -3.1%
- Cc1n[nH]c(C)c1Sc1ccccc1NC(=O)N1CCN(C)CC1 — higher, 50.2%
- Cc1nnc(C2Cc3ccccc3CN2Cc2c(C)noc2C)o1 (centres undefined) — higher, -1.11%
- CCOC(=O)Cn1ccc(O)c(Cc2ccc(Cl)cc2Cl)c1=O — higher, 0.692%
- Cc1nc(CN2C(=O)CC[C@@H]3[C@H]2CCN3C(=O)C2CCOCC2)cs1 — lower, -7.34%
- Cc1ccccc1N1CCN(C2CCCN(C(=O)CCC(C)C)C2)CC1 (centres undefined) — higher, -0.359%
- COc1cc(CN2CCC(NC(=O)c3cccn3C)C2)cc(OC)c1 (centres undefined) — lower, -7.95%
- CC(=O)N1N=C(c2cccs2)OC1C(=O)Nc1ccc(C)cc1 (centres undefined) — higher, 1.28%
- COc1cccc(S(=O)(=O)CCNC(C)Cn2cccn2)c1 (centres undefined) — higher, 4.6%
- CCOc1ccc(C#N)cc1NCC(=O)NC1(C#N)CCCC1 — lower, -6.01%
- Cc1cc(N(C)C)nc(C2CCCN2)n1 (centres undefined) — higher, -3.78%
- O=c1c2cc3c(cc2nnn1Cc1ccccc1Cl)OCCO3 — higher, 12.4%
- COC(=O)c1ccc(-c2noc(CN(CCO)Cc3cccs3)n2)cc1 — lower, -10.2%
- CC(C)CN(C(=O)COc1ccc(C(N)=O)cc1)C1CCN(C)CC1 — higher, -4.39%
- c1ccn2c(SCC3CN=C(N4CCOCC4)S3)ncc2c1 (centres undefined) — higher, 19.3%
- Cc1ccccc1CS(=O)(=O)c1nnc(C(C)NC(=O)OC(C)(C)C)o1 (centres undefined) — higher, 26.9%
- CN(C)c1ncc(I)c(C2CCCN2S(C)(=O)=O)n1 (centres undefined) — higher, 44.4%
- Cc1cnn(CCCNC(=O)NCCS(=O)(=O)Nc2ccccc2)c1 — lower, -25.5%
- Cc1ccnc(OC[C@]23COC[C@H]2CN(C(=O)Cc2ccsc2)C3)n1 — lower, -7.56%
- c1cnn(CCN2CCOC(Cn3cncn3)C2)c1 (centres undefined) — higher, 6.43%
- COCC(=O)N1CCCC2(CCN(Cc3cccc(C)n3)C2=O)C1 (centres undefined) — higher, -0.526%
- O=C(CCCOc1ccccc1Cl)N1CCCC(n2cncn2)C1 (centres undefined) — higher, 11%
- CCCS(=O)(=O)N(C)C(=O)CCc1ccccc1 — lower, -8.46%
- CN(CC(=O)NS(=O)(=O)c1ccsc1)Cc1ccccc1 — lower, -6.37%
- CCNc1ncc(C(=O)N[C@H]2CC[C@H](n3cnnc3)CC2)cn1 — higher, -1.33%
- CCC(=O)N1CCCc2c(cnn2C)C1 — higher, 23.9%
- COc1cc(OC)cc(N2CCC(NCc3cc[nH]n3)C2)c1 (centres undefined) — higher, 40.6%
- CC(C)C1CN(C(=O)c2cn3ccccc3n2)CCCN1CC1CC1 (centres undefined) — lower, -10.1%
- Cc1cc(N2CCC(Cc3ccccc3)CC2)ncn1 — lower, -11.5%
- O=S(=O)(CCCc1ccccc1)Cc1nnnn1C1CC1 — lower, -8.42%
- CN(C)c1ccccc1C(=O)N1CCCC(c2ccc(C(=O)O)cc2)C1 (centres undefined) — lower, -17.2%
- CN1CC(Oc2ccc(Cl)cc2)=NC(SCC(=O)Nc2ccccc2)=N1 — higher, 7.43%
- CCCc1noc(C2CCCCN2C(=O)C2CCCC2)n1 (centres undefined) — higher, 32.2%
- Cc1nn(C)c(C)c1-c1ccc(=O)n(C(C)C(=O)NC2CCCC2)n1 (centres undefined) — higher, -5.55%
- CNc1oc(-c2ccc(OC)c(S(=O)(=O)N3CCCCC3)c2)nc1C#N — lower, -18%
- O=C1OCCN1C1CCN(Cc2cc3n(n2)CCCNC3)CC1 — higher, 17.1%
- CC(=O)N1CCC2(CC1)CC(NC(=O)N(C)C)c1cc(C)ccc12 (centres undefined) — lower, -5.6%
- CCN(CCNC(=O)Nc1nnc(C)s1)C(=O)OC(C)(C)C — lower, -5.88%
- CN1CCC(c2cccc(NCc3ccncc3)n2)CC1 — higher, -2.85%
- CN1CCOC(CNC(=O)C2(c3ccccc3)CCC2)C1 (centres undefined) — higher, -5.1%
- CC(=O)NCC(=O)N1Cc2cc(-c3cc[nH]n3)ccc2C1c1cnco1 (centres undefined) — higher, -2.28%
- O=C(CCN1CCCCC1)N1CCC(Cc2ccc(CO)cc2)C1 (centres undefined) — lower, -6.38%
- CCOC(=O)C1(NC(=O)CCNc2cc(C)ccc2OC)CCCCC1 — higher, -4.71%
- COc1ccccc1-c1ccc(NCc2cn3c(n2)SCC3)nn1 — lower, -7.12%
- O=C(Cn1ccc2ccccc21)N1CCC(Oc2cnccn2)CC1 — lower, -7%
- Cc1nc(CN2C[C@@H](CN3CCOCC3)[C@@H](CO)C2)c2ccccn12 — higher, 16.5%
- c1cnn(CC2CN(Cc3csc(-c4ccsc4)n3)CCO2)c1 (centres undefined) — lower, -6.82%
- CCn1ccnc1CN1CCNCC1C (centres undefined) — higher, -5.16%
- CCCN(Cc1ccccc1)Cn1nc(C)c2c(C)onc2c1=O — higher, 0.0673%
- CCOc1ccc(NC(=O)c2cc(C)c(C)o2)cc1CO — higher, 26.7%
- CCNc1ncc(C(=O)NCCc2csc(-c3ncccn3)n2)cn1 — higher, 5.7%
- CN1CC(=O)N(c2ccccc2)CC12CCN(C(=O)CC1CC1)C2 (centres undefined) — higher, 8.17%
- CCN(C(=O)NCc1ccc(C)cc1OC)C(C)c1cccnc1 (centres undefined) — lower, -6.56%
- N#Cc1cccc(CN2C[C@H](OCC3CCOCC3)[C@H]3COC[C@H]32)c1 — lower, -5.67%
- CC[C@H](C)Nc1ncc(-c2ccn(C3CCN(C(C)=O)CC3)n2)cn1 — higher, -5.16%
- CCc1nc(CCNC(=O)Nc2cccc(C(=O)NC)c2C)cs1 — higher, 9.84%
- CCCn1cc(NC(=O)c2ccc(S(C)(=O)=O)cc2)ccc1=O — higher, -1.34%
- CN(C)c1ncnc2c1CCN(Cc1nccs1)CC2 — lower, -6.81%
- O=C(CCN1C(=O)CCC1=O)Nc1ccc(Oc2ccc(Cl)cc2)nc1 — lower, -10.7%
- CS(=O)(=O)NCC(Cc1cccc(F)c1)N1CCNC1=O (centres undefined) — lower, -13.3%
- CC(NC(=O)N1CCC(CC(N)=O)CC1)c1csc2ccccc12 (centres undefined) — lower, -10.8%
- O=C1CCNc2cc3c(cc2CN1CC1CC1)OCO3 — higher, 0.558%
- CCS(=O)(=O)N1CCC(c2nn(CCN(C)C)c3ncccc23)C1 (centres undefined) — higher, -1.3%
- CN(Cc1cscn1)Cc1cc2c(cc1Br)OCO2 — higher, -4.04%
- Cc1ncc(-c2ccncc2)c(C2CCN(C(=O)c3ccco3)CC2)n1 — higher, -2.42%
- Cc1ccccc1OCCN1CCn2c(C)nnc2C1 — higher, 25.1%
- O=C(Nc1cnn(Cc2ccc(Cl)cc2)c1)N[C@@H]1C=C[C@H](CO)C1 — lower, -7.72%
- CN(Cc1cccnc1)CC1(O)CCCN(CC(C)(C)C)C1=O (centres undefined) — higher, -2.66%
- Cc1cc(O)cc(=O)n1CCCC(=O)Nc1n[nH]c2cccc(F)c12 — lower, -16.5%
- c1coc(CN2CCOC3(COCCN(Cc4ccncc4)C3)C2)c1 (centres undefined) — higher, -3.4%
- O=C(NC1CC1)C1(Cc2ccccc2-c2ccncc2)CCOCC1 — higher, 7.42%
- Cc1[nH]c2ccc(CNc3cc(C#N)ccn3)cc2c1C — higher, -4.75%
- CCCOc1cc(CNC(=O)Nc2cccnc2N2CCCC2)ccn1 — lower, -24.2%
- COc1cc(C)cc(-c2nc3c([nH]2)CCNC3)c1OC — higher, 9.79%
- Cc1ncccc1CNCC1CCN(CC(O)c2ccccc2)CC1 (centres undefined) — higher, -1.3%
- CC[C@H]1CN2CC[C@H]1C[C@@H]2CNC(=O)Nc1cc(OC)cc(OC)c1 — higher, 0.42%
- CCOc1ncnc2c1CCN(S(=O)(=O)c1ccccc1)CC2 — lower, -14.4%
- CC(C)CN(Cc1cnn(C)c1)C(=O)C1COc2ccccc2C1 (centres undefined) — higher, 1.15%
- N#Cc1ccsc1NC(=O)CCN1CCn2c(nnc2C2CC2)C1 — lower, -7.52%
- CCN1CC(C(=O)NCc2ccnc(-n3cccn3)c2)CC1=O (centres undefined) — higher, -4.01%
